Source: EP0538469A1, “SULFONANILIDE DERIVATIVE AND MEDICINE” (NIPPON SHINYAKU COMPANY, LIMITED, priority 1990, dated 1991)
Where two headings read alike, the source gives them in different places. Marks after values point to notes of the source that are not given here.

How the values were obtained:
smooth muscle of urethra = assay: Contraction of isolated smooth muscle of urethra (Magnus vessel, cumulative concentration/response curves); format: cell-based, rabbits; settings: for EC50: Oryctolagus cuniculus, female rabbit urethra smooth muscle, contraction
Method: (§1) The experiment was conducted using female rabbits of 2 to 3.5 kg body weight.
(§2) The animals were killed by draining the blood out under anesthetizing with pentobarbital (30 mg/kg, by intravenous injection) and smooth muscle of urethra and femoral artery were excised. Each of the excised samples was placed in a Magnus vessel filled with a modified Krebs solution (at 37°C; under mixed gas) and both smooth muscle of urethra and femoral artery were suspended with 1 g load.
(§3) The drug to be tested was accumulated to contract the samples whereby the concentration/response curves were obtained wherefrom ED₅₀ (M) and pD₂ were calculated and the selectivity to urethra was determined.

femoral artery = assay: Contraction of isolated femoral artery (Magnus vessel, cumulative concentration/response curves); format: cell-based, rabbits; settings: Oryctolagus cuniculus, female rabbit femoral artery, contraction
Method: as §1, §2, §3

male rabbits = assay: Action to intra urethral pressure and blood pressure, administration to duodenum; format: in vivo
Method: The experiment was conducted using male rabbits of body weight of 1.4-3.1 kg under fasted condition. The animals were fixed at backs under uretrane(1.2g/kg s.c.) anesthesia, abdomen was subjected to a midline incision and bladder was exposed. In order to prevent the urine stored in the bladder on the intra urethral pressure, the urine in the bladder was compulsorily discharged out of the body. After that, a catheter was inserted into both ureters and the urine discharged from kidney was introduced outside.
The intra urethral pressure(IUP) at the urethra tract of about 0.5-1 cm distance from the neck of the bladder was measured using a microtip transducer transducer equipped with a baloon (filled with physiological saline solution) at the top end. Further, polyethylene tube was inserted into femoral artery to measure the blood pressure (BP).
Abdomen right above stomach was subjected to a midline incision and, after that, the drug to be tested suspended in 0.5% methyl cellulose (0.5% MC) was administered at the dose of 0.5ml/kg to the duodenum. […] The above administration to duodenum corresponded to oral administration as the administration into digestive organ in anethetized animals.

mice (ddY-strain, male) = assay: Acute toxicity, oral, mice; format: in vivo; settings: observed two weeks
Method: (§4) Numbers of mice (ddY-strain, male, 6-8 weeks age) and rats (SD strain, male, 6-7 weeks age) in each group were 4 and 6, respectively.
(§5) The drug to be tested was orally administered at the dose of 10 ml/kg using an oral probe to the animals which were fasted since one day before (for 16-18 hours). After giving the drug, the animals were returned to the state where both feed and water were available and the general symptom and the dead cases, if any, were checked for two weeks. The drug was suspended in physiological saline solution containing 0.5% of methylcellulose (0.5% MC) and the suspension was given to the animals by oral route.

[1] = Acute toxicity, oral, rats; format: in vivo; settings: rat, in vivo, SD rats, read-out: Rats LD₅₀
Method: as §4, §5

rats (SD strain, male) = assay: Acute toxicity, oral, rats; format: in vivo; settings: observed two weeks
Method: as §4, §5

[2] = 1 mg/kg i.d., 10 min after administration
[3] = 1 mg/kg i.d., 20 min after administration
[4] = 1 mg/kg i.d., 30 min after administration
[5] = 1 mg/kg i.d., 60 min after administration
[6] = 1 mg/kg i.d., 90 min after administration
[7] = 1 mg/kg i.d., 120 min after administration
[8] = 1 mg/kg i.d., 180 min after administration
[9] = 3 mg/kg i.d., 10 min after administration
[10] = 3 mg/kg i.d., 20 min after administration
[11] = 3 mg/kg i.d., 30 min after administration
[12] = 3 mg/kg i.d., 60 min after administration
[13] = 3 mg/kg i.d., 90 min after administration
[14] = 3 mg/kg i.d., 120 min after administration
[15] = 3 mg/kg i.d., 180 min after administration

## CNCC(O)c1cccc(NS(C)(=O)=O)c1 (stereo not shown) [Amidephrine, reference compound]
Smooth muscle of urethra; ED₅₀ femoral artery / ED₅₀ urethra
  Selectivity (B/A): 0.18
Smooth muscle of urethra; read-out: ED₅₀ Urethra(A)
  EC50: 10.8 µM
Smooth muscle of urethra; read-out: pD₂ Urethra(A)
  EC50: 10.7 µM
Femoral artery; read-out: ED₅₀ Femoral Artery(B)
  EC50: 1.96 µM
Femoral artery; read-out: pD₂ Femoral Artery(B)
  EC50: 1.95 µM
Male rabbits; [2]
  Change(%) BP: 2.4%
  Change(%) IUP: 0.7%
Male rabbits; [3]
  Change(%) BP: -0.1%
  Change(%) IUP: 0.6%
Male rabbits; [4]
  Change(%) BP: 2.2%
  Change(%) IUP: 8.3%
Male rabbits; [5]
  Change(%) BP: 7.2* %
  Change(%) IUP: 47.6** %
Male rabbits; [6]
  Change(%) BP: 14.3** %
  Change(%) IUP: 56.8** %
Male rabbits; [7]
  Change(%) BP: 10.3* %
  Change(%) IUP: 46.1* %
Male rabbits; [8]
  Change(%) BP: 3.7** %
  Change(%) IUP: 32.1%
Male rabbits; [9]
  Change(%) BP: 5.8%
  Change(%) IUP: -4.5%
Male rabbits; [10]
  Change(%) BP: 3.7%
  Change(%) IUP: 15.9%
Male rabbits; [11]
  Change(%) BP: 4.1%
  Change(%) IUP: 47.1** %
Male rabbits; [12]
  Change(%) BP: 20.7** %
  Change(%) IUP: 108.5** %
Male rabbits; [13]
  Change(%) BP: 34.4** %
  Change(%) IUP: 107.8** %
Male rabbits; [14]
  Change(%) BP: 39.1** %
  Change(%) IUP: 92.7** %
Male rabbits; [15]
  Change(%) BP: 31.1** %
  Change(%) IUP: 92.2** %
Mice (ddY-strain, male); 1000 mg/kg
  Mice Dead/ Total: 0 / 4
Mice (ddY-strain, male); 3000 mg/kg
  Mice Dead/ Total: 3 / 4
[1]
  LD50 at 336 h: 12.4 mg/kg
Rats (SD strain, male); 5 mg/kg
  Rats Dead/ Total: 0 / 6
Rats (SD strain, male); 10 mg/kg
  Rats Dead/ Total: 3 / 6
Rats (SD strain, male); 20 mg/kg
  Rats Dead/ Total: 4 / 6
Rats (SD strain, male); 30 mg/kg
  Rats Dead/ Total: 6 / 6
